Laboratory results: BigSolDB 2.1

c1cc(-n2c3ccccc3c3ccccc32)cc(-n2c3ccccc3c3ccccc32)c1
solubility (mole fraction) (in DMSO, 293.15 K): 0.00436 | solubility (mole fraction) (in DMSO, 303.15 K): 0.00443 | solubility (mole fraction) (in DMSO, 313.15 K): 0.00472 | solubility (mole fraction) (in DMSO, 323.15 K): 0.00505 | solubility (mole fraction) (in NMP, 283.15 K): 0.062 | solubility (mole fraction) (in NMP, 293.15 K): 0.0702 | solubility (mole fraction) (in NMP, 303.15 K): 0.0761 | solubility (mole fraction) (in NMP, 313.15 K): 0.0801 | solubility (mole fraction) (in THF, 283.15 K): 0.0507 | solubility (mole fraction) (in THF, 293.15 K): 0.0528 | solubility (mole fraction) (in THF, 303.15 K): 0.0598 | solubility (mole fraction) (in THF, 313.15 K): 0.0792 | solubility (mole fraction) (in acetonitrile, 283.15 K): 0.000243 | solubility (mole fraction) (in acetonitrile, 293.15 K): 0.000311 | solubility (mole fraction) (in acetonitrile, 303.15 K): 0.000363 | solubility (mole fraction) (in acetonitrile, 313.15 K): 0.000483 | solubility (mole fraction) (in dichloromethane, 273.15 K): 0.0949 | solubility (mole fraction) (in dichloromethane, 283.15 K): 0.107 | solubility (mole fraction) (in dichloromethane, 293.15 K): 0.112 | solubility (mole fraction) (in dichloromethane, 303.15 K): 0.139 | solubility (mole fraction) (in ethanol, 283.15 K): 0.000448 | solubility (mole fraction) (in ethanol, 293.15 K): 0.000561 | solubility (mole fraction) (in ethanol, 303.15 K): 0.000802 | solubility (mole fraction) (in ethanol, 313.15 K): 0.00109 | solubility (mole fraction) (in ethyl acetate, 283.15 K): 0.00426 | solubility (mole fraction) (in ethyl acetate, 293.15 K): 0.00599 | solubility (mole fraction) (in ethyl acetate, 303.15 K): 0.00827 | solubility (mole fraction) (in ethyl acetate, 313.15 K): 0.00879 | solubility (mole fraction) (in isopropanol, 283.15 K): 4.55e-05 | solubility (mole fraction) (in isopropanol, 293.15 K): 5.9e-05 | solubility (mole fraction) (in isopropanol, 303.15 K): 6.95e-05 | solubility (mole fraction) (in isopropanol, 313.15 K): 0.00011 | solubility (mole fraction) (in methanol, 283.15 K): 4.36e-05 | solubility (mole fraction) (in methanol, 293.15 K): 6.14e-05 | solubility (mole fraction) (in methanol, 303.15 K): 9.66e-05 | solubility (mole fraction) (in methanol, 313.15 K): 0.000108 | solubility (mole fraction) (in n-butanol, 283.15 K): 0.000122 | solubility (mole fraction) (in n-butanol, 293.15 K): 0.00017 | solubility (mole fraction) (in n-butanol, 303.15 K): 0.000217 | solubility (mole fraction) (in n-butanol, 313.15 K): 0.000318 | solubility (mole fraction) (in n-hexane, 283.15 K): 0.000183 | solubility (mole fraction) (in n-hexane, 293.15 K): 0.000259 | solubility (mole fraction) (in n-hexane, 303.15 K): 0.000342 | solubility (mole fraction) (in n-hexane, 313.15 K): 0.000381 | solubility (mole fraction) (in toluene, 283.15 K): 0.0263 | solubility (mole fraction) (in toluene, 293.15 K): 0.0316 | solubility (mole fraction) (in toluene, 303.15 K): 0.0336 | solubility (mole fraction) (in toluene, 313.15 K): 0.0445
